Results: ChEMBL document CHEMBL4406866, “Design, synthesis and evaluation of 5-(4-hydroxyphenyl)-3H-1,2-dithiole-3-thione-Based fibrates as potential hypolipidemic and hepatoprotective agents” (Bioorg Med Chem Lett, 2019)
Active and inactive are the calls of the source. No cut-off for these calls is given here.

Assays:
[1] = Drug metabolism in po dosed mouse plasma assessed as H2S release by measuring hydrogen sulfide level administered for 7 days and measured following 12 hrs fasting on day 7 (reference value: 52.9 +/- 5.4 umol/L); format: ADME, organism-based; settings: in vivo
[2] = Drug metabolism in po dosed mouse liver assessed as H2S release by measuring hydrogen sulfide level administered for 7 days and measured following 12 hrs fasting on day 7 (reference value: 93.8 +/- 6.1 nmol/g); format: ADME, organism-based; settings: in vivo
Mus musculus [3] = organism: Mus musculus; settings: at 13 mg/kg
Description: Hypolipidemic activity in Triton WR1339-induced hyperlipidemia mouse model assessed as decrease in serum TG level at 13 mg/kg, ig administered for one week and administered with Triton WR 1339 on day 6 and measured after 24 hrs

Mus musculus [4] = organism: Mus musculus; settings: at 13 mg/kg; remark: listed apart in the source
Description: Hypolipidemic activity in Triton WR1339-induced hyperlipidemia mouse model assessed as decrease in serum TC level at 13 mg/kg, ig administered for one week and administered with Triton WR 1339 on day 6 and measured after 24 hrs

Mus musculus [5] = organism: Mus musculus; settings: at 13 mg/kg; remark: listed apart in the source
Description: Hypolipidemic activity in Triton WR1339-induced hyperlipidemia mouse model assessed as decrease in serum MDA level at 13 mg/kg, ig administered for one week and administered with Triton WR 1339 on day 6 and measured after 24 hrs

Rattus norvegicus [6] = test: Hepatoprotective activity in Met-induced hyperlipidemia rat model assessed as decrease in serum AST level at 9 mg/kg, po administered with compound for last 30 days during feeding of 0.2% Met solution for 60 days; format: functional, organism-based
Rattus norvegicus [7] = test: Hepatoprotective activity in Met-induced hyperlipidemia rat model assessed as decrease in serum ALT level at 9 mg/kg, po administered with compound for last 30 days during feeding of 0.2% Met solution for 60 days; format: functional, organism-based
Rattus norvegicus [8] = test: Hepatoprotective activity in Met-induced hyperlipidemia rat model assessed as decrease in red lipid droplets in hepatocytes at 9 mg/kg, po administered with compound for last 30 days during feeding of 0.2% Met solution for 60 days by oil red O-staining based microscopic analysis; format: functional, organism-based
Rattus norvegicus [9] = test: Upregulation of PPAR-alpha protein expression in liver of Met-induced hyperlipidemia rat model at 9 mg/kg, po administered with compound for last 30 days during feeding of 0.2% Met solution for 60 days; format: functional, organism-based
Rattus norvegicus [10] = test: Hypolipidemic activity in Met-induced hyperlipidemia rat model assessed as increase in serum hydrogen sulfide level at 9 mg/kg, po administered with compound for last 30 days during feeding of 0.2% Met solution for 60 days; format: functional, organism-based
Rattus norvegicus [11] = test: Hypolipidemic activity in Met-induced hyperlipidemia rat model assessed as decrease in serum TG level at 9 mg/kg, po administered with compound for last 30 days during feeding of 0.2% Met solution for 60 days; format: functional, organism-based
Rattus norvegicus [12] = test: Hypolipidemic activity in Met-induced hyperlipidemia rat model assessed as decrease in serum TC level at 9 mg/kg, po administered with compound for last 30 days during feeding of 0.2% Met solution for 60 days; format: functional, organism-based
Rattus norvegicus [13] = test: Hypolipidemic activity in Met-induced hyperlipidemia rat model assessed as decrease in atherosclerosis index at 9 mg/kg, po administered with compound for last 30 days during feeding of 0.2% Met solution for 60 days; format: functional, organism-based
Rattus norvegicus [14] = test: Antioxidant activity in Met-induced hyperlipidemia rat model assessed as increase in serum SOD level at 9 mg/kg, po administered with compound for last 30 days during feeding of 0.2% Met solution for 60 days; format: functional, organism-based
Rattus norvegicus [15] = test: Antioxidant activity in Met-induced hyperlipidemia rat model assessed as increase in serum T-AOC level at 9 mg/kg, po administered with compound for last 30 days during feeding of 0.2% Met solution for 60 days; format: functional, organism-based
Rattus norvegicus [16] = test: Antioxidant activity in Met-induced hyperlipidemia rat model assessed as decrease in serum MDA level at 9 mg/kg, po administered with compound for last 30 days during feeding of 0.2% Met solution for 60 days; format: functional, organism-based
Rattus norvegicus [17] = test: Antiinflammatory activity in Met-induced hyperlipidemia rat model assessed as decrease in serum TNF-alpha level at 9 mg/kg, po administered with compound for last 30 days during feeding of 0.2% Met solution for 60 days by ELISA; format: functional, organism-based
Rattus norvegicus [18] = test: Antiinflammatory activity in Met-induced hyperlipidemia rat model assessed as decrease in serum IL-6 level at 9 mg/kg, po administered with compound for last 30 days during feeding of 0.2% Met solution for 60 days by ELISA; format: functional, organism-based
Rattus norvegicus [19] = test: Hepatoprotective activity in Met-induced hyperlipidemia rat model assessed as improvement in hepatic tissue hemorrhagic symptoms at 9 mg/kg, po administered with compound for last 30 days during feeding of 0.2% Met solution for 60 days by microscopic analysis; format: functional, organism-based
Rattus norvegicus [20] = test: Hepatoprotective activity in Met-induced hyperlipidemia rat model assessed as decrease in inflammatory cell infiltration in liver at 9 mg/kg, po administered with compound for last 30 days during feeding of 0.2% Met solution for 60 days by microscopic analysis; format: functional, organism-based
Rattus norvegicus [21] = test: Vasorelaxation activity in Met-induced hyperlipidemia rat model assessed as effect on serum ET-1 level at 9 mg/kg, po administered with compound for last 30 days during feeding of 0.2% Met solution for 60 days; format: functional, organism-based
Rattus norvegicus [22] = test: Hypolipidemic activity in Met-induced hyperlipidemia rat model assessed as decrease in serum Hcy level at 9 mg/kg, po administered with compound for last 30 days during feeding of 0.2% Met solution for 60 days; format: functional, organism-based
[23] = Drug metabolism in Met-induced hyperlipidemia rat model assessed as H2S release by measuring increase in serum hydrogen sulfide level at 9 mg/kg, po administered with compound for last 30 days during feeding of 0.2% Met solution for 60 days; format: ADME, organism-based; settings: in vivo

Drug metabolism [1] [µmol/L]	Drug metabolism [2] [nmol/g]	SMILES	inhibition (Mus musculus [3])	inhibition (Mus musculus [4])	inhibition (Mus musculus [5])	further results
86.5	155.5	COC(=O)CCCCOc1ccc(-c2cc(=S)ss2)cc1	Active	Active		
93.7	132.1	COC(=O)CCCCCOc1ccc(-c2cc(=S)ss2)cc1	Active			
95.5	130.5	COC(=O)CCCOc1ccc(-c2cc(=S)ss2)cc1	Active	Active	Active	

Further lines, the molecule ahead of its results:

SMILES	Drug metabolism [1] [µmol/L]	Drug metabolism [2] [nmol/g]	inhibition (Mus musculus [3])	inhibition (Mus musculus [4])	inhibition (Mus musculus [5])	further results
CCC(Oc1ccc(-c2cc(=S)ss2)cc1)C(=O)OC (stereo unspecified)	128.8	159.5	Active		Active	
CC(C)OC(=O)C(C)(C)Oc1ccc(C(=O)c2ccc(Cl)cc2)cc1						Activity (Rattus norvegicus [6]): Active; Activity (Rattus norvegicus [7]): inactive; Activity (Rattus norvegicus [8]): Active; Activity (Rattus norvegicus [9]): Active; Activity (Rattus norvegicus [10]): Active
COc1ccc(-c2cc(=S)ss2)cc1 [ANETHOLTRITHION]	184.6	181.3	inactive	inactive	Active	
COC(=O)C(C)(C)Oc1ccc(-c2cc(=S)ss2)cc1	113.4	165.6	Active	Active	Active	inhibition (Rattus norvegicus [11]): Active; inhibition (Rattus norvegicus [12]): Active; inhibition (Rattus norvegicus [13]): Active; Activity (Rattus norvegicus [14]): Active; Activity (Rattus norvegicus [15]): Active; inhibition (Rattus norvegicus [16]): Active; inhibition (Rattus norvegicus [17]): Active; inhibition (Rattus norvegicus [18]): Active; Activity (Rattus norvegicus [6]): Active; Activity (Rattus norvegicus [7]): Active; Activity (Rattus norvegicus [8]): Active; Activity (Rattus norvegicus [19]): Active; Activity (Rattus norvegicus [20]): Active; Activity (Rattus norvegicus [21]): inactive; inhibition (Rattus norvegicus [22]): Active; Drug metabolism [23]: Metabolite_Detected; Activity (Rattus norvegicus [9]): Active
COC(=O)C(C)Oc1ccc(-c2cc(=S)ss2)cc1 (stereo unspecified)	119.3	164.8	Active			
